This note sets out measurements from patent US7994202B2, “Bicyclic nitrogen-containing heterocyclic compounds” (Asahi Kasei Pharma Corporation, priority 2008, dated 2011).

Experiment [1] relates to female SD rat. Nature of the experiment: Micturition interval prolongation in an anesthetized rat - II (0.2% acetic acid infusion to bladder). The format is in vivo. The note with it: urethane-anesthetized female SD rat, 0.2% acetic acid bladder infusion, administered to the left femoral vein. How it is done: Activity of prolonging micturition interval in an anesthetized rat was determined with reference to the method established by Maggi, et al. (Eur. J. Pharmacol. 145, p. 105-112 (1988)). Specifically, a female SD rat was anesthetized with urethane and fixed in a supine position, and a catheter was inserted through an external urethral opening. Using a three-way stopcock, it was connected to a pressure transducer and a syringe pump. While infusing physiological saline including 0.2% acetic acid to the bladder at constant rate, cystometrogram was recorded. After confirming stabilized micturition interval, micturition threshold pressure and maximal voiding pressure, a solvent or the compound to be tested was administered to the left femoral vein and an activity of prolonging micturition interval was determined as an efficacy of the drug compound. Each group included five animals.

The target of experiment [2] is T1, human EP1 receptor (Homo sapiens, UniProt P34995).
T1 construct: expressed in transfected cells
T1 sequence (P34995 1-402): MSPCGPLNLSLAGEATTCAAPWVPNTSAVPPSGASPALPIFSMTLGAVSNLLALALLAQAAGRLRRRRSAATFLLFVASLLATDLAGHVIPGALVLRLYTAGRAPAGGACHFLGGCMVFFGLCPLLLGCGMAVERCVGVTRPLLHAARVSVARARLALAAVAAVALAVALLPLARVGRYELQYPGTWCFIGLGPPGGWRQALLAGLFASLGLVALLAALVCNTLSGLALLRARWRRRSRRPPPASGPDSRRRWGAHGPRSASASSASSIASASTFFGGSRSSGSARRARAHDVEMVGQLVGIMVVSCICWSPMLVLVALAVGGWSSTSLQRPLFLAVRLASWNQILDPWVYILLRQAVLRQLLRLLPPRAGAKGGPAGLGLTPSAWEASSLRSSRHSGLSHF
Briefly: Antagonist activity using cells expressing human EP1 receptor (intracellular Ca2+ assay, Fura 2-AM). The note with it: HEK293 cells stably expressing human EP1 receptor, PGE2 10 nM. In kind it is cell-based. How it is done: (§1) Measurement of an Antagonist Activity by Using Cells Expressing Human EP1 Receptor
Cells expressing human EP1 receptor were suspended in an assay buffer to the concentration of 5×10^6 cells/ml, added with Puronic F-127 (final concentration 0.2%), and Fura 2-AM (final concentration 5 uM), followed by incubation at 37° C. for 30 minutes. After washing twice with the assay buffer, the cells were again suspended in the assay buffer to 1×10^6 cells/60 ul, and then transferred to a 96 well UV plate (1×10^6 cells/60 ul/well). Thereafter, by using a fluorescent chemical screening system (FDSS4000, Hamamatsu Photonics K.K.), intracellular Ca^2+ concentration was measured after adding 20 ul of each of the test compounds and PGE2 (5× of the final concentration for both). Ca^2+ concentration was measured by determining fluorescence intensity after irradiation with two excitation wavelengths, i.e., 340 and 380 nm.
Furthermore, EP1 antagonist activity was calculated as a ratio (%) of inhibiting increase in intracellular Ca^2+ concentration by PGE2 (10 nM).
Assay buffer: 20 mM HEPES/KOH (pH 7.4), 115 mM NaCl, 5.4 mM KCl, 0.8 mM MgCl2, 0.8 mM CaCl2, 13.8 mM D-glucose, 0.1% BSA

The target in experiment [3] is T1, human EP1 receptor. Nature of the experiment: Antagonist activity using cells expressing human EP1 receptor (SRE-luciferase reporter activity, PGE2 10 nM). In kind it is cell-based. Conditions: HEK293 cells stably expressing human EP1 receptor, 6 hours, read-out: IC50 value in the measurement of antagonist activity using human EP1 receptor expressing cells.
Text: as §1
As a result of searching Refseq Database for prostaglandin E receptor, genetic information of human EP1 (NM_000955) receptor was obtained. Based on this sequence information, human EP1 receptor gene was cloned by PCR using human cDNA as a template and by an ordinary method to give human EP1 receptor. Then, HEK293 in which the receptor is stably expressed was established, together with a reporter gene (SRE-Luciferase) in which serum responsible element (SRE) is added at the upstream region of firefly luciferase gene. The resulting cells were seeded to a 96 well plate (5×10^4 cells/well) and cultured for one day. To the plate, PGE2 (200 nM, final concentration 10 nM) and the test compound (in an amount of 1/20, 20× of the final concentration) were added to initiate the reaction. After allowing the reaction to proceed at 37° C. for 6 hours, the medium was aspirated off, added with a luminescent agent and the reporter activity was measured. […]
In general terms: A reporter such as luciferase makes a cellular process visible.

In experiment [4] the target is T1, human EP1 receptor. Nature of the experiment: Receptor binding test using cells expressing human EP1 receptor ([3H]PGE2 binding inhibition, membrane fraction). The note with it: membrane fraction of HEK293 cells expressing human EP1 receptor, [3H]PGE2 1 nM; read-out: Ki value in the measurement of [3H]PGE2 binding inhibitory activity.
Procedure: Receptor Binding Test Using Cells Expressing Human EP1 Receptor
Inhibitory activity of the test compounds on binding of [^3H]PGE2 in HEK293 cells stably expressing human EP1 receptor was measured.
HEK293 cells, which stably express human EP1 receptor, were established by using the gene for human EP1 receptor, and then a membrane fraction was prepared therefrom. Thus-prepared membrane fraction was incubated at 30° C. for 90 minutes with a reaction solution (200 μL/well) which includes the test compound and [^3H]PGE2. Upon the completion of the reaction, the reaction solution was aspirated off under reduced pressure, and the [^3H]PGE2 bound to the membrane fraction was trapped by using Unifilter Plateg CF/C (manufactured by Packard) and the bound radioactivity was counted with a liquid scintillator.
Kd value was obtained from a Scatchard plot. Non-specific binding was obtained from the binding in the presence of an excess amount (10 μM) of non-labeled PGE2. For the measurement of an inhibitory activity of the test compound on [^3H]PGE2 binding, [^3H]PGE2 (1 nM) and various concentrations of the test compound were added. Meanwhile, for all of the reactions, the buffer as described below was used.
Buffer; 10 mM MES/NaOH (pH 6.0), 10 mM MgCl2, 1 mM EDTA, 0.1% BSA
Dissociation constant of the compounds, i.e., Ki, was obtained according to the following equation. […]
For experiment [5], the system named is SD rats. Nature of the experiment: Action of extending interval of micturition in rat in wakefulness II (0.3% acetic acid-induced cystitis). The format is in vivo. The note with it: male SD rats in wakefulness, 0.3% acetic acid cystitis, intravenous. An excerpt:
SD rats (Charles River Laboratories Japan, Inc., male) were employed as experimental animals. Each rat was put under anesthesia by inhalation of 2% isoflurane (laughing gas:oxygen=7:3), and then was fixed in the supine position. Anesthesia was maintained by the inhalation of 2% isoflurane. The abdominal part was incised along the midline, and the urinary bladder was exposed from the intraperitoneal cavity. The vertex vesicae part was subjected to a small incision, and a polyethylene tube (PE-50: Becton Dickinson and Company) was inserted into the bladder and fixed. […] Thereafter, while physiological saline warmed to 37° C. was injected to the other end of the tube inserted into the bladder through one branch of a three-way stopcock at a rate of 3.0 mL/hr, the internal pressure of the bladder was continuously recorded from another branch using a pressure amplifier through a pressure transducer. The excreted urine was cumulatively accumulated in a vessel on a digital balance, and the weight change was simultaneously measured. […] The value obtained before the administration was taken from an average value of the values measured for 30 minutes before the administration, and the value obtained after the administration was taken from an average value of the values measured for 60 minutes immediately after the administration. […]

`O=C(O)c1csc(-n2nc(-c3ccccc3)c3ccccc32)n1` [Exp.2, 2-(3-Phenyl-1H-indazol-1-yl)thiazole-4-carboxylic acid] came in with a Voiding interval-extending action in experiment [1] of 30.0%.
For orientation: IC50 means the midpoint of a concentration-inhibition curve. Take `Cc1ccccc1-c1nn(-c2nc(C(=O)O)cs2)c2ccccc12` [Exp.9]: the results for the half-inhibitory concentration (IC50) in experiment [2] and in experiment [3] were 100 to 300 nM and ≤ 20 nM, respectively.
As usually defined, the Ki is the dissociation constant of the complex between target and ligand, obtained from inhibition or displacement. With `O=C(O)c1csc(-n2nc(-c3ccccc3)c3ccc(C(F)(F)F)nc32)n1` [Exp.106], the IC50 in experiment [2] was ≤ 100 nM; in experiment [3], ≤ 20 nM. Also, the Ki in experiment [4] was ≤ 100 nM.
With `O=C(O)c1csc(-n2nc(C3=CCCCO3)c3ccc(C(F)(F)F)cc32)n1` [Exp.105], the 50% inhibitory concentration (IC50) in experiment [2] is ≤ 100 nM; in experiment [3], ≤ 20 nM. Moreover, the Ki in experiment [4] is ≤ 100 nM.
`C=Cc1ccc2c(-c3ccccc3)nn(-c3nc(C(=O)O)cs3)c2c1` [Exp. 162]: the 50% inhibitory concentration (IC50) in experiment [3] was ≤ 20 nM.
On the same count and under the same terms, the figure for `C/C=C/c1ccc2c(-c3ccccc3)nn(-c3nc(C(=O)O)cs3)c2c1` [Exp. 159] is ≤ 20 nM.
On the same count and under the same terms, the figure for `O=C(O)c1csc(-n2nc(-c3ccccc3)c3ccc(NC(=O)C4CCCC4)cc32)n1` [Exp. 131] is 100 to 500 nM.
On to `O=C(O)c1csc(-n2nc(-c3cccc(O)c3)c3ccccc32)n1` [Exp.16], for which the results for the IC50 in experiment [2] and in experiment [3] were 100 to 300 nM and 20 to 100 nM, respectively.
With `CC(=O)Nc1ccc2c(-c3ccccc3)nn(-c3nc(C(=O)O)cs3)c2c1` [Exp.122], the IC50 in experiment [3] lay in the range of 100 to 500 nM.
The same measure, in the same setting: the same measure for `CCC(C)S(=O)(=O)Nc1ccc2c(-c3ccccc3)nn(-c3nc(C(=O)O)cs3)c2c1` (stereo not drawn) [Exp. 142]: 100 to 500 nM.
As for `O=C(O)c1csc(-n2nc(-c3ccccc3)c3ccc(C(F)(F)F)cc32)n1` [Exp.77], the amount of micturition result in experiment [5] was “increase in the amount of micturition”. Besides, the micturition interval extension in experiment [5] (60 minutes after administration) is on record as ≥ 30%.
On to `O=C(O)c1csc(-n2nc(-c3ccccc3)c3ccc(SCc4ccccc4)nc32)n1` [Exp. 176], for which, in experiment [3], the half-maximal inhibitory concentration (IC50) fell in the range of 100 to 500 nM.
Regarding `O=C(O)c1csc(-n2nc(-c3ccccc3)c3ccc(NC(=O)C4CC4)cc32)n1` [Exp. 135], the concentration for half-maximal inhibition (IC50) in experiment [3] was 100 to 500 nM.
Same read-out and setting: the same measure for `O=C(O)c1csc(-n2nc(-c3ccccc3)c3ccc(Sc4cccc(C(F)(F)F)c4)nc32)n1` [Exp.179]: 20 to 100 nM.
Same read-out and setting: the same measure for `CCSc1ccc2c(-c3ccccc3)nn(-c3nc(C(=O)O)cs3)c2n1` [Exp. 165]: 100 to 500 nM; for `CN(C)c1ccc2c(-c3ccccc3)nn(-c3nc(C(=O)O)cs3)c2c1` [Exp.154]: ≤ 20 nM; for `O=C(O)c1ccc(-n2nc(-c3ccccc3)c3ccccc32)s1` [Exp.94]: 100 to 500 nM.
